From article PMC5131891, “Structural Insights into Streptococcal Competence Regulation by the Cell-to-Cell Communication System ComRS” (PLoS Pathogens, 2016)
Values joined by “and” are separate entries in the source; they are usually repeats but may differ in a detail not shown here. Equal values may be shown once. Peptide text beside a SMILES is read from it.

Columns and labels:
ComR WT [1] = molecular target: ComR WT (Streptococcus thermophilus, UniProt A0A1L1QK15); assay: biochemical; assay type: binding, Streptococcus thermophilus LMD-9; settings: KD
Method: Purification of ComR-StreptagII proteins (StreptagII at C-terminus) was performed as described previously with some modifications. E. coli strain BL21 Gold cultures were grown in 2YT medium at 15°C until an OD600 of ~ 0.5, cooled down on ice for 10 minutes, and induced by addition of 0.2% of L-arabinose (wt vol^-1) before continuous shaking at 28°C for 4 h. Cells were then harvested by centrifugation (5,000 × g during 15 min at 8°C). The pellets were resuspended in cold buffer W (100 mM Tris-HCl pH 8.0, 150 mM NaCl, 1 mM EDTA) supplemented with 0.5 mg ml^−1 of lysozyme, incubated for 30 min at 4°C, and sonicated at 4°C. […] For structural and biophysical analyses, the purification protocol was completed by a size exclusion chromatography step using a HiLoad 16/600 Superdex 75 prep grade column (GE Healthcare) equilibrated in buffer W plus 10% (vol vol^-1) glycerol. Purified proteins were aliquoted, flash frozen and conserved at -20°C. Their purity was visualized by SDS-PAGE and their concentrations were measured using a Nanodrop apparatus (protein A280 method) (ThermoFisher Scientific).
Isothermal titration calorimetry (ITC) experiments were performed at 20°C in 20 mM Tris-HCl pH 8.0, 150 mM NaCl, 1 mM EDTA with an ITC200 calorimeter (Microcal). The protein concentration in the microcalorimeter cell and the peptide concentration in the syringe were set at 50 μM and 500 μM, respectively. A first injection of 0.4 μl, which was not taken into account for the fitting, was followed by 20 injections of 2 μl at intervals of 180 s. The peptide concentration used in the calculations is based on the weight of the lyophilized peptide and is therefore inaccurate because there may be a significant quantity of bound water, and salts or counter ions. However, the calculated number of binding sites, n, is always close to 1, in agreement with the 1:1 ratio observed in the crystal structure of the ternary complex. […] The data were analyzed using the MicroCal Origin software provided by the manufacturer. […] It was therefore not possible to distinguish the two events and the fitting was performed with the one-binding-site model. The calculated KD are therefore apparent values.

ComR K100A = ComR K100A (Streptococcus thermophilus, UniProt A0A1L1QK15, K100A); assay: ITC, XIP binding on ComR K100A; set-up: species or system Streptococcus thermophilus LMD-9
Sequence of ComR K100A (A0A1L1QK15 entry or part of it K100A): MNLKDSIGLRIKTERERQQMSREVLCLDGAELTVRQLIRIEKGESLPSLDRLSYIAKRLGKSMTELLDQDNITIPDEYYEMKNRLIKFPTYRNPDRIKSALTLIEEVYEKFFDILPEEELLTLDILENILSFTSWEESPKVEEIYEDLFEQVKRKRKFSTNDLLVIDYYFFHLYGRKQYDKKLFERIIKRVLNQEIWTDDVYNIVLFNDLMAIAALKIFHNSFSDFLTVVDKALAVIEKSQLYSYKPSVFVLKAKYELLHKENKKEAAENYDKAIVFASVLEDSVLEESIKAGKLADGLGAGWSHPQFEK
Method: (§1) Purification of ComR-StreptagII proteins (StreptagII at C-terminus) was performed as described previously with some modifications. E. coli strain BL21 Gold cultures were grown in 2YT medium at 15°C until an OD600 of ~ 0.5, cooled down on ice for 10 minutes, and induced by addition of 0.2% of L-arabinose (wt vol^-1) before continuous shaking at 28°C for 4 h. Cells were then harvested by centrifugation (5,000 × g during 15 min at 8°C). The pellets were resuspended in cold buffer W (100 mM Tris-HCl pH 8.0, 150 mM NaCl, 1 mM EDTA) supplemented with 0.5 mg ml^−1 of lysozyme, incubated for 30 min at 4°C, and sonicated at 4°C. […] Their purity was visualized by SDS-PAGE and their concentrations were measured using a Nanodrop apparatus (protein A280 method) (ThermoFisher Scientific).
(§2) Isothermal titration calorimetry (ITC) experiments were performed at 20°C in 20 mM Tris-HCl pH 8.0, 150 mM NaCl, 1 mM EDTA with an ITC200 calorimeter (Microcal). […] The peptide concentration used in the calculations is based on the weight of the lyophilized peptide and is therefore inaccurate because there may be a significant quantity of bound water, and salts or counter ions. However, the calculated number of binding sites, n, is always close to 1, in agreement with the 1:1 ratio observed in the crystal structure of the ternary complex. […] The calculated KD are therefore apparent values.

ComR T90A = ComR T90A (Streptococcus thermophilus, UniProt A0A1L1QK15, T90A); assay: ITC, XIP binding on ComR T90A; set-up: species or system Streptococcus thermophilus LMD-9
Sequence of ComR T90A (A0A1L1QK15 entry or part of it T90A): as the sequence (A0A1L1QK15 entry or part of it K100A) above, with T90A, A100K counted along it
Method: as §1, §2

ComR Y91A = ComR Y91A (Streptococcus thermophilus, UniProt A0A1L1QK15, Y91A); assay: ITC, XIP binding on ComR Y91A; set-up: species or system Streptococcus thermophilus LMD-9
Sequence of ComR Y91A (A0A1L1QK15 entry or part of it Y91A): as the sequence (A0A1L1QK15 entry or part of it K100A) above, with Y91A, A100K counted along it
Method: as §1, §2

ComR R92A = ComR R92A (Streptococcus thermophilus, UniProt A0A1L1QK15, R92A); assay: ITC, XIP binding on ComR R92A; set-up: species or system Streptococcus thermophilus LMD-9
Sequence of ComR R92A (A0A1L1QK15 entry or part of it R92A): as the sequence (A0A1L1QK15 entry or part of it K100A) above, with R92A, A100K counted along it
Method: as §1, §2

ComR F171A/Y174A = ComR F171A/Y174A (Streptococcus thermophilus, UniProt A0A1L1QK15, F171A/Y174A); assay: ITC, XIP binding on ComR F171A/Y174A; set-up: species or system Streptococcus thermophilus LMD-9
Sequence of ComR F171A/Y174A (A0A1L1QK15 entry or part of it F171A/Y174A): as the sequence (A0A1L1QK15 entry or part of it K100A) above, with A100K, F171A, Y174A counted along it
Method: as §1, §2

ComR K87A/K246A [2] = molecular target: ComR K87A/K246A (Streptococcus thermophilus, UniProt A0A1L1QK15, K246A/K87A); assay: ITC, XIP binding on ComR K87A/K246A; set-up: species or system Streptococcus thermophilus LMD-9
Method: as §1, §2

ComR K87A/K246A [3] = molecular target: ComR K87A/K246A (Streptococcus thermophilus, UniProt A0A1L1QK15, K87A/K246A); assay: ITC, XIP binding on ComR K87A/K246A; set-up: species or system Streptococcus thermophilus LMD-9; settings: ITC, ComR K87A/K246A
Method: as §1, §2

[4] = compared with heptapeptide 18–24; ref [30]; cited from earlier work
Method: The corresponding synthetic XIP peptide […] as well as the variants used in the functional analysis were supplied by GenScript or Peptide 2.0 (Chantilly, VA) and resuspended at a concentration of 50 mM in 50% DMSO / 50% protein stora ...

ComR WT [5] = molecular target: T1, ComR WT (Streptococcus thermophilus LMD-9, UniProt PDB:5JUB_1 1-310); assay: EMSA; XIP 0.2-1.2 uM; ComR 4 uM; EMSA: 20 mM Tris-HCl pH 8.0, 150 mM NaCl, 1 mM EDTA, 10% glycerol, 1 mg/ml BSA, 37 C 10 min, 40 ng DNA in 20 ul; crystal: 30% PEG 550 MME, 0.1 M MgCl2, 0.05 M Tris-HCl pH 8.5, 18 C; settings: protein: recombinant; tags: C-terminal StreptagII; chain copies: 2; label: Cy3 (Methods: Alexa 555), direct strand; blunt
T1 sequence: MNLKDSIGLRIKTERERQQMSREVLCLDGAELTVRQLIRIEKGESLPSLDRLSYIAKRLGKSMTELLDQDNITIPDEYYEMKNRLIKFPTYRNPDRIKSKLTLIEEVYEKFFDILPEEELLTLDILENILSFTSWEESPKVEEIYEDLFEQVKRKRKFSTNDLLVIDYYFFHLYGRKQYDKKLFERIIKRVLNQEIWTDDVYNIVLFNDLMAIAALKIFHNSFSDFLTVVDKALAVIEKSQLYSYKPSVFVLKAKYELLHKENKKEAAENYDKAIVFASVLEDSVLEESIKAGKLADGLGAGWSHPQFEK

ComR K87A/K246A [6] = molecular target: T2, ComR K87A/K246A (Streptococcus thermophilus LMD-9, UniProt PDB:5JUB_1 1-310, K87A;K246A); assay: EMSA; XIP up to 1.2 uM; ComR 4 uM; EMSA: 20 mM Tris-HCl pH 8.0, 150 mM NaCl, 1 mM EDTA, 10% glycerol, 1 mg/ml BSA, 37 C 10 min, 40 ng DNA in 20 ul; crystal: 30% PEG 550 MME, 0.1 M MgCl2, 0.05 M Tris-HCl pH 8.5, 18 C; settings: protein: recombinant; tags: C-terminal StreptagII; chain copies: 2; label: Cy3 (Methods: Alexa 555), direct strand; blunt
T2 sequence: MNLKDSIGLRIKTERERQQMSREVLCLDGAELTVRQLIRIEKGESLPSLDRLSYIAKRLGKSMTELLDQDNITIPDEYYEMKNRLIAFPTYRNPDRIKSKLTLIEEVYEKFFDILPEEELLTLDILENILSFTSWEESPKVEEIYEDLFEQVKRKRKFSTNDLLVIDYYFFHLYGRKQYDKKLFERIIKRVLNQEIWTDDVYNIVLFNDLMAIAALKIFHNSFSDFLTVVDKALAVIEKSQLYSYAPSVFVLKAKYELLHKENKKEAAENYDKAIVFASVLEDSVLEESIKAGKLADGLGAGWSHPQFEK

ComR E146A/D147A = molecular target: T3, ComR E146A/D147A (Streptococcus thermophilus LMD-9, UniProt PDB:5JUB_1 1-310, E146A;D147A); assay: EMSA; no XIP; ComR 4 uM; strong, multimeric complexes; EMSA: 20 mM Tris-HCl pH 8.0, 150 mM NaCl, 1 mM EDTA, 10% glycerol, 1 mg/ml BSA, 37 C 10 min, 40 ng DNA in 20 ul; crystal: 30% PEG 550 MME, 0.1 M MgCl2, 0.05 M Tris-HCl pH 8.5, 18 C; settings: protein: recombinant; tags: C-terminal StreptagII; chain copies: 2; label: Cy3 (Methods: Alexa 555), direct strand; blunt
T3 sequence: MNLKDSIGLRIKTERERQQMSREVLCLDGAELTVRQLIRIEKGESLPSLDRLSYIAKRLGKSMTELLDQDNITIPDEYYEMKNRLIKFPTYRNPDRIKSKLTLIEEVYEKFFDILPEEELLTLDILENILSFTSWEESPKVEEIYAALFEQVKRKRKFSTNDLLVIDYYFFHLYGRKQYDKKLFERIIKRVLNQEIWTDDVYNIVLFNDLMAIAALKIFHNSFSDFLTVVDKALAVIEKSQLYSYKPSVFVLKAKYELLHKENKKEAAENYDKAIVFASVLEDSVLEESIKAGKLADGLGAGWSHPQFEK

Molecule | Kd (ComR WT [1]) | Kd (ComR K100A) | Kd (ComR T90A) | Kd (ComR Y91A) | KD value in words (ComR Y91A; ITC, ComR Y91A) | Kd (ComR R92A) | affinity in words (ComR R92A; ITC, ComR R92A) | Kd (ComR F171A/Y174A) | Kd (ComR K87A/K246A [2]) | affinity in words (ComR K87A/K246A [3]) | stability [4] | binding result (ComR WT [5]) | binding result (ComR K87A/K246A [6]) | binding result (ComR E146A/D147A)
CC(C)C[C@H](NC(=O)[C@H](CS)NC(=O)CNC(=O)[C@H](C)NC(=O)[C@H](Cc1ccccc1)NC(=O)[C@H](Cc1ccc(O)cc1)NC(=O)[C@@H]1CCCN1C(=O)[C@@H](N)CC(C)C)C(=O)O [XIP] (H-LPYFAGCL-OH) | 10 nM and 8 nM | 1170 ± 245 nM | 244 ± 108 nM | 141 ± 33 nM | same order of magnitude than observed with T90A mutant | 277 ± 23 nM | decreased affinity for XIP | 87 ± 9 nM | 9 ± 3 nM | did not affect the affinity of ComR for the XIP peptide | more stable | – | – | –
Cy3-boxPster_1655 wt (40 bp) (dsDNA) DNA 1: CAAAATCGAGTAGTGACATTTATGTCACTACTTTTTTGTT DNA 2: AACAAAAAAGTAGTGACATAAATGTCACTACTCGATTTTG | – | – | – | – | – | – | – | – | – | – | – | binds | no binding | binds
